In US11028090B2 (Dong Wha Pharm. Co., Ltd., priority 2017, dated 2021):
Like-named read-outs stand apart in the source and are kept apart here.

Assays:
[1] = system: acute myelogenous leukemia cells (MV-4-11 cells); experiment: Cytotoxicity to acute myelogenous leukemia cells (MV-4-11 cells), CCK-8
[2] = target: BRD4 (BD1+BD2) bromodomain (Homo sapiens (Human), UniProt O60885); experiment: BRD4 binding inhibition (AlphaScreen, GST-BRD4 vs tetraacetylated histone H4 peptide)
Method in brief: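 AlphaScreen read after 30 min dark incubation at room temperature with glutathione acceptor/streptavidin donor beads (10 μg/ml each). The beads were added to compound plus 100 nM biotin-H4 (K5,8,12,16-acetyl) peptide and 100 nM GST-BRD4 BD1+BD2 in pH 7.4 HEPES/Tween/BSA/DTT buffer.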

[3] = Homo sapiens, MV4-11, 72 h, read-out: MV-4-11 Cytotoxicity IC50
[4] = GST-BRD4 (BD1+BD2) / biotinylated acetyl-histone H4 (Lys5,8,12,16) peptide, read-out: IC50, BRD4 binding inhibition
[5] = GST-BRD4 (BD1+BD2) vs biotinylated acetyl-histone H4 peptide, AlphaScreen, read-out: BRD4 IC50
[6] = Homo sapiens, MV4-11, 72 h, read-out: IC50, cytotoxicity against acute myelogenous leukemia cells

IC50 [2, 4] [nM] | IC50 [2, 5] [nM] | SMILES | IC50 [1, 3] [nM] | IC50 [1, 6] [nM] | IC50 ([1]; read-out: MV-4-11 Cytotoxicity IC50, MV-4-11 cells, 72 hours, CCK-8) [nM]
≤ 10 | 10 | COCCOc1ccc2c(c1)nc(NCCCCNC(=O)[C@H](NC(=O)[C@@H](O)C(C)C)C(C)C)c1nnc(C)n12 (stereo in doubt) [Example 403, 2-(S,R)-hydroxy-N-(1-{4-[7-(2-methoxy-ethoxy)-1-methyl-[1,2,4]triazolo[4,3-a]quinoxaline-4-ylamino]-butylcarbamoyl}-2-methyl-propyl)-3-methyl-butyramide] | 610 | – | –
– | 74 | Cc1nnc2c(NCCCCNC(=O)OC(C)(C)C)nc3ccccc3n12 [Example 1, [4-(1-methyl-[1,2,4]triazolo[4,3-a]quinoxaline-4-ylamino)-butyl]-carbamic acid-tert-butylester] | 980 | – | –
≤ 10 | 5 | Cc1nnc2c(NCCCCNC(=O)[C@@H](O)C(C)C)nc3ccccc3n12 [Example 10, 2-(S)-hydroxy-N-[4-(1-methyl-[1,2,4]triazolo[4,3-a]quinoxaline-4-ylamino)-butyl]-3-methyl-butyramide] | 160 | – | –
≤ 10 | 8 | Cc1nnc2c(NCCCCNC(=O)CC(C)C)nc3cc(F)c(F)cc3n12 [Example 37, N-[4-(7,8-difluoro-1-methyl-[1,2,4]triazolo[4,3-a]quinoxaline-4-ylamino)-butyl]-3-methyl-butyramide] | 121 | ≤ 200 | –
≤ 10 | 6 | Cc1nnc2c(NCCCCNC(=O)[C@@H](O)C(C)C)nc3cc(F)c(F)cc3n12 [Example 39, N-[4-(7,8-difluoro-1-methyl-[1,2,4]triazolo[4,3-a]quinoxaline-4-ylamino)-butyl]-2-(S)-hydroxy-3-methyl-butyramide] | 190 | – | –
– | 56 | CCOC(=O)NCCCCNc1nc2cc(OC)c(OC)cc2n2c(C)nnc12 [Example 61, [4-(7,8-dimethoxy-1-methyl-[1,2,4]triazolo[4,3-a]quinoxaline-4-ylamino)-butyl]-carbamic acid ethylester] | 380 | – | –
≤ 50 | 12 | CCC(C)OC(=O)NCCCCNc1nc2cc(OC)c(OC)cc2n2c(C)nnc12 (stereo not shown) [Example 63, [4-(7,8-dimethoxy-1-methyl-[1,2,4]triazolo[4,3-a]quinoxaline-4-ylamino)-butyl]-carbamic acid-sec-butylester] | 70 | ≤ 200 | –
≤ 50 | 20 | CCCOC(=O)NCCCCNc1nc2cc(OC)c(OC)cc2n2c(C)nnc12 [Example 64, [4-(7,8-dimethoxy-1-methyl-[1,2,4]triazolo[4,3-a]quinoxaline-4-ylamino)-butyl]-carbamic acid propylester] | 120 | ≤ 200 | –
≤ 50 | 38 | COc1cc2nc(NCCCCNC(=O)OCc3ccccc3)c3nnc(C)n3c2cc1OC [Example 68, [4-(7,8-dimethoxy-1-methyl-[1,2,4]triazolo[4,3-a]quinoxaline-4-ylamino)-butyl]-carbamic acid benzylester] | 450 | – | –
≤ 50 | – | COc1cc2nc(NCCCCNC(=O)C(C)C)c3nnc(C)n3c2cc1OC [Example 70, N-[4-(7,8-dimethoxy-1-methyl-[1,2,4]triazolo[4,3-a]quinoxaline-4-ylamino)-butyl]-isobutyramide] | 370 | – | –
≤ 50 | 18 | COc1cc2nc(NCCCCNC(=O)C=C(C)C)c3nnc(C)n3c2cc1OC [Example 71, 3-methyl-butene-2-oic acid-[4-(7,8-dimethoxy-1-methyl-[1,2,4]triazolo[4,3-a]quinoxaline-4-ylamino)-butyl]-amide] | 110 | ≤ 200 | –
≤ 50 | 21 | C/C=C/C(=O)NCCCCNc1nc2cc(OC)c(OC)cc2n2c(C)nnc12 [Example 72, butene-2-oic acid-[4-(7,8-dimethoxy-1-methyl-[1,2,4]triazolo[4,3-a]quinoxaline-4-ylamino)-butyl]-amide] | 470 | – | –
≤ 50 | 15 | CCC(C)CC(=O)NCCCCNc1nc2cc(OC)c(OC)cc2n2c(C)nnc12 (stereo not shown) [Example 73, 3-methyl-pentanoic acid-[4-(7,8-dimethoxy-1-methyl-[1,2,4]triazolo[4,3-a]quinoxaline-4-ylamino)-butyl]-amide] | 10 | ≤ 200 | –
≤ 50 | 38 | COc1cc2nc(NCCCCNC(=O)C3CC3)c3nnc(C)n3c2cc1OC [Example 76, cyclopropane-carboxylic acid-[4-(7,8-dimethoxy-1-methyl-[1,2,4]triazolo[4,3-a]quinoxaline-4-ylamino)-butyl]-amide] | 870 | – | –
– | – | Cc1nnc2c(NCCCCNC(=O)CC(C)C)nc3cc(NS(=O)(=O)C(C)C)ccc3n12 [Example 259, 3-methyl-N-{4-[1-methyl-7-(propane-2-sulfonylamino)-[1,2,4]triazolo[4,3-a]quinoxaline-4-ylamino]-butyl}-butyramide] | 339 | – | –
– | – | Cc1nnc2c(NCCCCNC(=O)C(C)(C)C)nc3ccc(OC(F)(F)F)cc3n12 [Example 265, 2,2-dimethyl-N-[4-(1-methyl-8-trifluoromethoxy-[1,2,4]triazolo[4,3-a]quinoxaline-4-ylamino)-butyl]-propionamide] | 680 | – | –
– | – | Cc1nnc2c(NCCCCNC(=O)C(C)(C)C)nc3cc(OC(F)(F)F)ccc3n12 [Example 271, 2,2-dimethyl-N-[4-(1-methyl-7-trifluoromethoxy-[1,2,4]triazolo[4,3-a]quinoxaline-4-ylamino)-butyl]-propionamide] | 880 | – | –
– | – | COc1ccc2c(c1)nc(NCCCCNC(=O)C1CC1)c1nnc(C)n12 [Example 282, cyclopropane; carboxylic acid-[4-(7-methoxy-1-methyl-[1,2,4]triazolo[4,3-a]quinoxaline-4-ylamino)-butyl]-amide] | 534 | – | –
– | – | Cc1nnc2c(NCCCCNC(=O)CC(C)C)nc3cc(OC(=O)N4CCOCC4)ccc3n12 [Example 351] | 290 | – | –
– | – | CSc1ccc2c(c1)nc(NCCCCNC(=O)CC(C)C)c1nnc(C)n12 [Example 356, 3-methyl-N-[4-(1-methyl-7-methylsulfanyl-[1,2,4]triazolo[4,3-a]quinoxaline-4-ylamino)-butyl]-butyramide] | 143 | ≤ 200 | –
– | – | Cc1nnc2c(NCCCCNC(=O)OC(C)C)nc3cc(OC(C)C)ccc3n12 [Example 452, [4-(7-isopropoxy-1-methyl-[1,2,4]triazolo[4,3-a]quinoxaline-4-ylamino)-butyl]-carbamic acid isopropylester] | 320 | – | –
– | – | COCCOc1cc2c(cc1OC)nc(NCCCCNC(=O)OC(C)(C)C)c1nnc(C)n12 [Example 483, {4-[7-methoxy-8-(2-methoxy-ethoxy)-1-methyl-[1,2,4]triazolo[4,3-a]quinoxaline-4-ylamino]-butyl}-carbamic acid-tert-butylester] | 460 | – | –
– | – | COCCOc1cc2c(cc1OC)nc(NCCCCN)c1nnc(C)n12 [Example 484, N^1-[7-methoxy-8-(2-methoxy-ethoxy)-1-methyl-[1,2,4]triazolo[4,3-a]quinoxaline-4-yl]-butane-1,4-diamine ditrifluoroacetic acid] | 460 | – | –
– | – | Cc1nnc2c(NCCCCNC(=O)[C@@H](NC(=O)CC(C)C)C(C)C)nc3cc(N4C[C@@H](C)O[C@@H](C)C4)ccc3n12 [Example 518, (S)-N-{4-[7-(2,6-dimethyl-morpholine-4-yl)-1-methyl-[1,2,4]triazolo[4,3-a]quinoxaline-4-ylamino]-butyl}-3-methyl-2-(3-methyl-butyrylamino)-butyramide] | 480 | – | –
– | – | Cc1nnc2c(NCCCCNC(=O)OC(C)(C)C)nc3cc(N4CCc5sccc5C4)ccc3n12 [Example 526, {4-[7-(6,7-dihydro-4H-thiano[3,2-c]pyridine-5-yl)-1-methyl-[1,2,4]triazolo[4,3-a]quinoxaline-4-ylamino]-butyl}-carbamic acid-tert-butylester] | 802 | – | –
– | – | COc1cc2nc(NCCCCNC(=O)CC(C)C)c3nnc(C)n3c2cc1NC(=O)NC(C)C [Example 561, N-{4-[8-(3-isopropyl-ureido)-7-methoxy-1-methyl-[1,2,4]triazolo[4,3-a]quinoxaline-4-ylamino]-butyl}-3-methyl-butyramide] | 60 | ≤ 200 | –
– | – | COc1cc2nc(NCCCCNC(=O)CC(C)C)c3nnc(C)n3c2cc1N(S(C)(=O)=O)S(C)(=O)=O [Example 566, N-[4-(8-dimethanesulfonyl-amino-7-methoxy-1-methyl-[1,2,4]triazolo[4,3-a]quinoxaline-4-ylamino)-butyl]-3-methyl-butyramide] | – | – | 550
– | – | COc1cc2nc(NCCCCNC(=O)OC(C)(C)C)c3nnc(C)n3c2cc1F [Example 572, [4-(8-fluoro-7-methoxy 1-methyl-[1,2,4]triazolo[4,3-a]quinoxaline-4-ylamino)-butyl]-carbamic acid-tert-butylester] | 238 | – | –
– | – | COc1cc2c(cc1OCCN1CCOCC1)nc(NCCCCNC(=O)CC(C)C)c1nnc(C)n12 [Example 577, N-{4-[8-methoxy-1-methyl-7-(2-morpholine-4-yl-ethoxy)-[1,2,4]triazolo[4,3-a]quinoxaline-4-ylamino]-butyl}-3-methyl butyramide] | 87 | ≤ 200 | –
– | – | Cc1noc(C)c1-c1ccc2c(c1)nc(NCCCCN)c1nnc(C)n12 [Example 584, N^1-[7-(3,5-dimethyl-isoxazol-4-yl)-1-methyl-[1,2,4]triazolo[4,3-a]quinoxaline-4-yl]-butane-1,4-diamine ditrifluoroacetic acid] | 130 | ≤ 200 | –
